From patent US20250179032A1, “HETEROCYCLIC INHIBITORS OF GLUT9 FOR TREATMENT OF DISEASE” (HORIZON THERAPEUTICS IRELAND DAC, priority 2022, published 2025)

These compounds were tested against T1, H. sapiens SLC2A9 variant 2 (GLUT9B) (Homo sapiens, UniProt Q9NRM0) (assay: GLUT9 functional assay: uric acid uptake in HEK293T cells, allantoin formation by MS/MS as proxy of GLUT9B inhibition). Settings: 15 minute assay; HEK293T cells stably expressing GLUT9B and transiently A. oryzae uricase; uric acid 0.3 mM, 37° C.; read-out: 15 min IC50.
T1 sequence (Q9NRM0 1-511 isoform Q9NRM0-2): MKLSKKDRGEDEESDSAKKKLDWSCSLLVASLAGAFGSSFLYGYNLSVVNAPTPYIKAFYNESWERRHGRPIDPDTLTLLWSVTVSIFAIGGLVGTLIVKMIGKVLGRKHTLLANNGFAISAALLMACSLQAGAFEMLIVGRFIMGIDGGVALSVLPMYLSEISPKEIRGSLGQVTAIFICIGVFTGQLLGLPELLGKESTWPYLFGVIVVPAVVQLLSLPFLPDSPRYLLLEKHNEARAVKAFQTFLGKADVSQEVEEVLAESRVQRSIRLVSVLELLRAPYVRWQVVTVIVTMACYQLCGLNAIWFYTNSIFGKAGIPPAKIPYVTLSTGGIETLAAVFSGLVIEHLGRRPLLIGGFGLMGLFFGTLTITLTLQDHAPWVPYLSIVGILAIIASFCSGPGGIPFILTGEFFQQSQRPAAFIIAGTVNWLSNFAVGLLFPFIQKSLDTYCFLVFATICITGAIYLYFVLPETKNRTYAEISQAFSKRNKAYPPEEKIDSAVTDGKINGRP
Assay type: cell-based
Description: Uric acid stocks (9 mM, Millipore-Sigma, U0881) were generated in 125 mM choline chloride (Millipore-Sigma, C7017) and the concentration was determined at 293 nm using a molar extinction coefficient of 9600 M- ^1 cm- ^1) after collecting the absorbance spectra from 220-350 nm. Allantoin stocks (12 mM Toronto Research Chemicals, A540500) were generated in LCMS grade water (Thermo Scientific, 51140). The concentration of allantoin was determined by qNMR (Michigan State University). HEK293T cells were purchased from ATCC (HEK 293T/17 SF). Hanks buffered saline salts (HBSS) was purchased from Millipore-Sigma (H6648-1L).
SLC2A9 variant 2 was assayed in sodium gluconate buffer was composed of 125 mM sodium gluconate (TCI Chemicals, G0041-500G), 4.8 mM potassium gluconate (TCI Chemicals, G0040-500G), 1.2 mM calcium gluconate (TCI Chemicals, G0037-500G), 1.2 mM potassium phosphate (pH 7.4, Millipore-Sigma, 17835), 1.2 mM MgSO4, Millipore-Sigma, M2773-500G), 25 mM HEPES pH 7.3, (Millipore-Sigma, 54457). The final pH of the buffer was 7.4. Urate 1 was assayed in the same buffer save the pH was made to be 5.5 using 25 mM MES (pH 5.5) buffer vs 25 mM HEPES (pH 7.3) buffer.
Human untagged clone for (untagged)-human solute carrier family 2 member 9 (SLC2A9), transcript variant (SLC2A9/NM_001001290, FIG. 1 and FIG. 2; SEQ ID NOS: 3 and 4) was purchased from Origene (Cat #SC319239). SLC2A9 variant 2 (GLUT9B) gene was amplified by PCR using the following primer to allow for the introduction of EcoR1 and Not1 sites using the primers below.
HEK293T clonal stable cell lines containing the SLC2A9 variant 2 construct in the bicistronic pIRESpuro vector were generated using Viafect™ (Promega E4981) as per the manufactures instructions and puromycin selection (5 μg×mL^−1).
Uric acid uptake was measured in HEK293T cells stably expressing H. sapiens SLC2A9 variant 2 (GLUT9B) and transiently expressing A. oryzae uricase. Thus, decreased allantoin formation was used as a proxy of GLUT9B inhibition. Briefly, clonal cells were plated (53,000 cells/cm^2) in DMEM with 10% FBS. Twenty-four hours later, A. oryzae uricase was transfected, and assay conducted 3 days later across a 12-point curve in buffer (in mM: 125 sodium gluconate, 4.8 potassium gluconate, 1.2 calcium gluconate, 1.2 potassium phosphate, 1.2 magnesium sulfate4, 25 HEPES; pH 7.4) with uric acid at the GLUT9B Km (0.3 mM) for 15 min or for 60 min, at 37° C. Following wash (Hanks, 37° C.), plates were sealed, incubated (5 min, RT) and cells freeze-thawed prior to lysing in water and shaking (30 min RT). Lysates were filtered through PVDF and subjected to MSMS using a 10 mM ammonium acetate-based mobile phase on a porous graphitic carbon column. Allantoin was detected in positive ion mode. Desired analyte concentrations were quantitated by integrating the area under the curve followed by a log-logistic regression model and data compared to a standard curve prepared in a matching HEK293T biological matrix.
Mass spectrometry measurement of allantoin was completed using an Agilent RapidFire 300 coupled to a Sciex API 4000 mass spectrometer. The stationary phase was an Agilent cartridge D (hypercarb). Mobile phase A was 10 mM ammonium acetate. Mobile phase B was 5 mM ammonium acetate, 25% acetonitrile, 25% acetone. Allantoin was detected in positive ion mode with the following compound ID settings: Q1 159, Q3 115.8, DP 57, CE 12.5 Dwell 100 ms. The source settings were CAD 10, CUR 20, GS1 50, GS250 IS/NC: 5000, TEM 650, EP 10, CXP 10 where Q1 and Q3 resolution were set to low.
Data was quantitated using Area under the curve integration was performed with the RapidFire™ Integrator (Agilent Technologies) for the desired analytes. Quantitation was completed using in a using a log-logistic regression model using allantoin in matching HEK293T biological matrix.
`COCc1cnc(-c2cc(F)c3c(ccn3C)c2)c(N2CCC(C(=O)O)CC2)n1` [Compound 51, 1-(3-(7-fluoro-1-methyl-1H-indol-5-yl)-6-(methoxymethyl)pyrazin-2-yl)piperidine-4-carboxylic acid] showed an IC50 greater than 2 µM.
With `COCc1cnc(-c2cc(F)c3ccn(C)c3c2)c(N2CCC(C(=O)O)CC2)n1` [Compound 52, 1-(3-(4-fluoro-1-methyl-1H-indol-6-yl)-6-(methoxymethyl)pyrazin-2-yl)piperidine-4-carboxylic acid] the IC50 was less than 0.5 µM.
For `COCC(COC)Cc1cnc(-c2cc(F)c3occc3c2)c(N2CCC(C(=O)O)CC2)n1` [Compound 53, 1-(3-(7-Fluorobenzofuran-5-yl)-6-(3-Methoxy-2-(methoxymethyl)propyl)pyrazin-2-yl)piperidine-4-carboxylic acid], the IC50 was less than 0.5 µM.
`COc1ccc(-c2nc(Cl)c(COCC(F)(F)F)nc2N2CCC(C(=O)O)CC2)cc1` [Compound 54, 1-(5-chloro-3-(4-methoxyphenyl)-6-((2,2,2-trifluoroethoxy)methyl)pyrazin-2-yl)piperidine-4-carboxylic acid] showed an IC50 greater than 2 µM.
`COCc1cnc(-c2cc(F)c3c(c2)CCO3)c(N2CCC(C(=O)O)CC2)n1` [Compound 55, 1-(3-(7-fluoro-2,3-dihydrobenzofuran-5-yl)-6-(methoxymethyl)pyrazin-2-yl)piperidine-4-carboxylic acid] showed an IC50 of 0.5 to 2 µM.
Compound `COCc1nc(N2CCC(C(=O)O)CC2)c(-c2cc(F)c3c(ccn3C)c2)nc1Cl` [Compound 56, 1-(5-chloro-3-(7-fluoro-1-methyl-1H-indol-5-yl)-6-(methoxymethyl)pyrazin-2-yl)piperidine-4-carboxylic acid] has an IC50 greater than 2 µM.
`O=C(O)C1CCN(c2nc(COCC(F)(F)F)cnc2-c2ccc3oc(F)cc3c2)CC1` [Compound 57, 1-(3-(2-fluorobenzofuran-5-yl)-6-((2,2,2-trifluoroethoxy)methyl)pyrazin-2-yl)piperidine-4-carboxylic acid] showed an IC50 greater than 2 µM.
Compound `O=C(O)C1CCN(c2nc(COCC(F)(F)F)cnc2-c2ccc(Cl)c(OC(F)(F)F)c2)CC1` [Compound 58, 1-(3-(4-chloro-3-(trifluoromethoxy)phenyl)-6-((2,2,2-trifluoroethoxy)methyl)pyrazin-2-yl)piperidine-4-carboxylic acid] has an IC50 greater than 2 µM.
`O=C(O)c1c[nH]c2cc(-c3cc(COC(F)(F)F)cnc3-c3cc(F)c4occc4c3)ccc12` [Compound 59, 6-(2-(7-fluorobenzofuran-5-yl)-5-((trifluoromethoxy)methyl)pyridin-3-yl)-1H-indole-3-carboxylic acid] was tested, and the IC50 was less than 0.5 µM.
For `O=C(O)C1CCN(c2nc(CCC(F)(F)F)cnc2-c2ccc3oc(F)cc3c2)CC1` [Compound 60, 1-(3-(2-fluorobenzofuran-5-yl)-6-(3,3,3-trifluoropropyl)pyrazin-2-yl)piperidine-4-carboxylic acid], the IC50 was 0.5 to 2 µM.
Work on `O=C(O)C1CCN(c2nc(CCC(F)(F)F)cnc2-c2cc(F)c3occc3c2)CC1` [Compound 61, 1-(3-(7-Fluorobenzofuran-5-yl)-6-(3,3,3-Trifluoropropyl)Pyrazin-2-yl)piperidine-4-carboxylic acid] yielded an IC50 of less than 0.5 µM.
For `COc1cc(-c2ncc(CCC(F)(F)F)nc2N2CCC(C(=O)O)CC2)ccc1Cl` [Compound 62, 1-(3-(4-chloro-3-methoxyphenyl)-6-(3,3,3-trifluoropropyl)pyrazin-2-yl)piperidine-4-carboxylic acid], the IC50 was greater than 2 µM.
With `O=C(O)c1c[nH]c2cc(-c3cc(CCC(F)(F)F)cnc3-c3cc(F)c4occc4c3)ccc12` [Compound 63, 6-(2-(7-fluorobenzofuran-5-yl)-5-(3,3,3-trifluoropropyl)pyridin-3-yl)-1H-indole-3-carboxylic acid] the IC50 was 0.5 to 2 µM.
For `O=C(O)C1CCN(c2nc(COCC(F)(F)F)cnc2-c2cnc3occc3c2)CC1` [Compound 64, 1-(3-(furo[2,3-b]pyridin-5-yl)-6-((2,2,2-trifluoroethoxy)methyl)pyrazin-2-yl)piperidine-4-carboxylic acid], the IC50 was greater than 2 µM.
